Results reported in publication PMC12121777 (PLOS One, 2025).
Values after ≈ are worked out from the molar mass of the structure shown. Like-named read-outs stand apart in the source and are kept apart here.

Legend:
Mtb 331/88 (i.e., H37Rv) = experiment: MIC, micro method in Šula's semisynthetic medium, drug-susceptible Mtb; type: cell-based, Mycobacterium tuberculosis; conditions: for MIC: Mycobacterium tuberculosis, H37RV
[1] = system: Mycobacterium avium 330/88; experiment: MIC, micro method in Šula's semisynthetic medium, M. avium; type: cell-based
[2] = system: Mycobacterium kansasii 6509/96; experiment: MIC, micro method in Šula's semisynthetic medium, M. kansasii clinical isolate; type: cell-based; conditions: read-out: MIC M. kansasii 6509/96
HepG2 cells = experiment: Cytotoxicity on HepG2 cell line (CellTiter 96); type: cell-based, human; conditions: for IC50: read-out: IC50 HepG2
[3] = 330/88, 336 h, read-out: MIC M. avium 330/88
[4] = 330/88, 504 h, read-out: MIC M. avium 330/88

Row | SMILES | MIC (Mtb 331/88 (i.e., H37Rv); 336 h, 14 days) | MIC (Mtb 331/88 (i.e., H37Rv); 504 h, 21 days) | MIC [1, 3] | MIC [1, 4] | MIC ([2]; 6509/96, 168 h) | MIC ([2]; 6509/96, 336 h) | MIC ([2]; 6509/96, 504 h) | IC50 (HepG2 cells; Homo sapiens, HepG2, 24 h) | IC50 (HepG2 cells) | fold more potent than precursor 4 against Mtb (Mtb 331/88 (i.e., H37Rv); oxadiazole 5 vs hydrazinecarboxamide 4 counterpart) | MIC ([1]; 330/88, read-out: MIC M. avium) | selectivity (SI) for M. avium (HepG2 cells; ratio of IC50 (HepG2) to MIC) | MIC ([1]; 330/88, 336 h, 14 days, * = growth still observed at this concentration, turbidity or precipitate above, read-out: MIC M. avium 330/88) | MIC ([1]; 330/88, 504 h, 21 days, * = growth still observed at this concentration, turbidity or precipitate above, read-out: MIC M. avium 330/88) | MIC ([2]; 6509/96, 168 h, 7 days) | MIC ([2]; 6509/96, 336 h, 14 days) | MIC ([2]; 6509/96, 504 h, 21 days) | IC50 (HepG2 cells; Homo sapiens, HepG2, 24 h incubation)
1 | CCCCNc1nnc(-c2cc([N+](=O)[O-])cc([N+](=O)[O-])c2)o1 [Compound 5d, N-Butyl-5-(3,5-dinitrophenyl)-1,3,4-oxadiazol-2-amine] | 0.5 µM (≈ 0.154 µg/mL) | 0.5 µM (≈ 0.154 µg/mL) | 64 µM (≈ 19.7 µg/mL) | 125 µM (≈ 38.4 µg/mL) | 1 µM (≈ 0.307 µg/mL) | 2 µM (≈ 0.615 µg/mL) | 2 µM (≈ 0.615 µg/mL) | > 250 µM | – | – | – | – | – | – | – | – | – | –
2 | CCCCCCCCCCCCNC(=O)NNC(=O)c1cc([N+](=O)[O-])cc([N+](=O)[O-])c1 [Compound 4l, 2-(3,5-Dinitrobenzoyl)-N-dodecylhydrazine-1-carboxamide] | 2 µM (≈ 0.875 µg/mL) | 2 µM (≈ 0.875 µg/mL) | > 250 µM | > 250 µM | 2 µM (≈ 0.875 µg/mL) | 2 µM (≈ 0.875 µg/mL) | 4 µM (≈ 1.75 µg/mL) | 166 µM | – | – | – | – | – | – | – | – | – | –
3 | CCCCCCCCCCCNC(=O)NNC(=O)c1cc([N+](=O)[O-])cc([N+](=O)[O-])c1 [Compound 4k, 2-(3,5-Dinitrobenzoyl)-N-undecylhydrazine-1-carboxamide] | 1 µM (≈ 0.423 µg/mL) | 1 µM (≈ 0.423 µg/mL) | > 500 µM | > 500 µM | 2 µM (≈ 0.847 µg/mL) | 4 µM (≈ 1.69 µg/mL) | 4 µM (≈ 1.69 µg/mL) | < 100 µM | 99.9 µM | – | – | – | – | – | – | – | – | –
4 | CCCCCNC(=O)NNC(=O)c1cc([N+](=O)[O-])cc([N+](=O)[O-])c1 [Compound 4e, 2-(3,5-Dinitrobenzoyl)-N-pentylhydrazine-1-carboxamide] | 1 µM (≈ 0.339 µg/mL) | 1 µM (≈ 0.339 µg/mL) | 1000 µM (≈ 339 µg/mL) | 1000 µM (≈ 339 µg/mL) | 1 µM (≈ 0.339 µg/mL) | 1 µM (≈ 0.339 µg/mL) | 2 µM (≈ 0.679 µg/mL) | 134 µM | – | – | – | – | – | – | – | – | – | –
5 | CCCCCCCCCCCNc1nnc(-c2cc([N+](=O)[O-])cc([N+](=O)[O-])c2)o1 [Compound 5k, 5-(3,5-Dinitrophenyl)-N-undecyl-1,3,4-oxadiazol-2-amine] | 0.5 µM (≈ 0.203 µg/mL) | 1 µM (≈ 0.405 µg/mL) | 4 µM (≈ 1.62 µg/mL) | 4 µM (≈ 1.62 µg/mL) | 1 µM (≈ 0.405 µg/mL) | 1 µM (≈ 0.405 µg/mL) | 1 µM (≈ 0.405 µg/mL) | > 50 µM | – | – | – | – | – | – | – | – | – | –
6 | CCCCCCNc1nnc(-c2cc([N+](=O)[O-])cc([N+](=O)[O-])c2)o1 [Compound 5f, 5-(3,5-Dinitrophenyl)-N-hexyl-1,3,4-oxadiazol-2-amine] | ≤ 0.03 µM | ≤ 0.03 µM | ≤ 1 µM | ≤ 1 µM | 0.25 µM (≈ 0.0838 µg/mL) | 0.5 µM (≈ 0.168 µg/mL) | 0.5 µM (≈ 0.168 µg/mL) | > 100 µM | – | ≥ 33.3 fold | 1 µM (≈ 0.335 µg/mL) | > 100 | – | – | – | – | – | –
7 | CCCCCCCCCCCCCNc1nnc(-c2cc([N+](=O)[O-])cc([N+](=O)[O-])c2)o1 [Compound 5m, 5-(3,5-Dinitrophenyl)-N-tridecyl-1,3,4-oxadiazol-2-amine] | 0.125 µM (≈ 0.0542 µg/mL) | 0.5 µM (≈ 0.217 µg/mL) | 8 µM (≈ 3.47 µg/mL) | 16 µM (≈ 6.94 µg/mL) | ≤ 0.03 µM | 0.06 µM (≈ 0.026 µg/mL) | 0.125 µM (≈ 0.0542 µg/mL) | > 50 µM | – | – | – | – | – | – | – | – | – | –
8 | NNC(=O)c1ccncc1 [INH, isoniazid, reference compound] | 0.5 µM (≈ 0.0686 µg/mL) | 0.5 µM (≈ 0.0686 µg/mL) | – | – | – | – | – | – | – | – | – | – | > 250 µM | > 250 µM | 4 µM (≈ 0.549 µg/mL) | 8 µM (≈ 1.1 µg/mL) | 8 µM (≈ 1.1 µg/mL) | > 1000 µM
9 | CCCCCNc1nnc(-c2cc([N+](=O)[O-])cc([N+](=O)[O-])c2)o1 [Compound 5e, 5-(3,5-Dinitrophenyl)-N-pentyl-1,3,4-oxadiazol-2-amine] | 0.25 µM (≈ 0.0803 µg/mL) | 0.25 µM (≈ 0.0803 µg/mL) | > 500 µM | > 500 µM | 0.25 µM (≈ 0.0803 µg/mL) | 0.5 µM (≈ 0.161 µg/mL) | 0.5 µM (≈ 0.161 µg/mL) | > 250 µM | – | – | – | – | – | – | – | – | – | –
10 | CCCCCCCCCCCCCCNC(=O)NNC(=O)c1cc([N+](=O)[O-])cc([N+](=O)[O-])c1 [Compound 4n, 2-(3,5-Dinitrobenzoyl)-N-tetradecylhydrazine-1-carboxamide] | 4 µM (≈ 1.86 µg/mL) | 8 µM (≈ 3.72 µg/mL) | > 500 µM | > 500 µM | 4 µM (≈ 1.86 µg/mL) | 8 µM (≈ 3.72 µg/mL) | 8 µM (≈ 3.72 µg/mL) | 207 µM | – | – | – | – | – | – | – | – | – | –
11 | CCCCCCCCNc1nnc(-c2cc([N+](=O)[O-])cc([N+](=O)[O-])c2)o1 [Compound 5h, 5-(3,5-Dinitrophenyl)-N-octyl-1,3,4-oxadiazol-2-amine] | 0.06 µM (≈ 0.0218 µg/mL) | 0.06 µM (≈ 0.0218 µg/mL) | 8 µM (≈ 2.91 µg/mL) | 16 µM (≈ 5.81 µg/mL) | ≤ 0.03 µM | 0.06 µM (≈ 0.0218 µg/mL) | 0.06 µM (≈ 0.0218 µg/mL) | > 100 µM | – | – | – | – | – | – | – | – | – | –
12 | CCCCCCCCCNc1nnc(-c2cc([N+](=O)[O-])cc([N+](=O)[O-])c2)o1 [Compound 5i, 5-(3,5-Dinitrophenyl)-N-nonyl-1,3,4-oxadiazol-2-amine] | 0.06 µM (≈ 0.0226 µg/mL) | 0.06 µM (≈ 0.0226 µg/mL) | 8 µM (≈ 3.02 µg/mL) | 16 µM (≈ 6.04 µg/mL) | ≤ 0.03 µM | 0.06 µM (≈ 0.0226 µg/mL) | 0.06 µM (≈ 0.0226 µg/mL) | > 100 µM | – | – | – | – | – | – | – | – | – | –
13 | CCCCCCCCCCNC(=O)NNC(=O)c1cc([N+](=O)[O-])cc([N+](=O)[O-])c1 [Compound 4j, N-Decyl-2-(3,5-dinitrobenzoyl)hydrazine-1-carboxamide] | 1 µM (≈ 0.409 µg/mL) | 1 µM (≈ 0.409 µg/mL) | > 500 µM | > 500 µM | 1 µM (≈ 0.409 µg/mL) | 2 µM (≈ 0.819 µg/mL) | 4 µM (≈ 1.64 µg/mL) | 141 µM | – | – | – | – | – | – | – | – | – | –
14 | O=[N+]([O-])c1cc(-c2nnc(NCc3ccc(Cl)cc3Cl)s2)cc([N+](=O)[O-])c1 [Compound 8d, N-(2,4-Dichlorobenzyl)-5-(3,5-dinitrophenyl)-1,3,4-thiadiazol-2-amine] | 0.125 µM (≈ 0.0533 µg/mL) | 0.125 µM (≈ 0.0533 µg/mL) | 2 µM (≈ 0.852 µg/mL) | 2 µM (≈ 0.852 µg/mL) | 0.25 µM (≈ 0.107 µg/mL) | 0.5 µM (≈ 0.213 µg/mL) | 0.5 µM (≈ 0.213 µg/mL) | – | – | – | – | – | – | – | – | – | – | –
